We go through twelve molecules from patent EP0068408A1 (priority 1981, dated 1983).

Structures are written as SMILES. In brackets after ≈: the same amount, converted by molar mass. Read-outs that look alike come from different tables or passages of the source. Bounds are passed on as bounds.

A short description of data set [1]: Acute toxicity in mice (LD50). The data set is classed as in vivo. To be noted: ddY male mice, suspended in 5% Arabic gum solution, observed for 7 days; for LD50 at 168 h: mouse, in vivo. As to the method: Experimental Example 7: Acute Toxicity in Mice
Each compound of the invention was suspended in 5% Arabic gum solution and given orally (p.o.) or intraperitoneally (i.p.) to groups of ten ddY male mice weighed from 24 to 26 g at the dosage volume of 10 ml/kg. […] LD50 was determined according to the method of Wilcoxon and Litchfield.

A further data set deals with influenza virus B/GL. In words: animal or person. The data set is classed as in vivo, mice. Conditions: for responders at 100 mg/kg / responders at 300 mg/kg / responders at 30 mg/kg: unidentified influenza virus, in Mus musculus, po, 360 h, read-out: Survival rate; for survival rates of the treated groups as compared with the control: result in words, Table 7.
In the next data set the test system is influenza virus A/WSN. In words: animal or person. To be noted: in Mus musculus, 360 h, read-out: Survival rate. The data set is classed as in vivo, mice.
In another data set the test system is coxsackie virus B1. Further details: species or system mice. Conditions: mouse, in vivo, po.
Data set [2] concerns parainfluenza virus type 3. Also noted: species or system mice. Conditions: mouse, in vivo, po.
Another data set deals with Parainfluenza Type 3. As to the kind of experiment: microbe, parasite or virus in culture. The class given is cell-based. Conditions: virus E = Parainfluenza Type 3.
The next data set has as its system Influenza A1. As to the kind of experiment: microbe, parasite or virus in culture. The class given is cell-based.
The subject of another data set is ECHO. As to the kind of experiment: microbe, parasite or virus in culture. The class given is cell-based.
The next data set concerns Influenza B. As to the kind of experiment: microbe, parasite or virus in culture. The class given is cell-based.
The subject of another data set is Coxsackie Type B5. As to the kind of experiment: microbe, parasite or virus in culture. The class given is cell-based. Conditions: virus G = Coxsackie Type B5.
For a further data set, the system named is Rhino. As to the kind of experiment: microbe, parasite or virus in culture. The class given is cell-based.
In the next data set the test system is Influenza A0. As to the kind of experiment: microbe, parasite or virus in culture. The class given is cell-based. To be noted: virus A = Influenza A0, MDCK, Vero and HEL cells, 2 or 3 days.
For a further data set, the system named is influenza A0 virus. As to the kind of experiment: animal or person. The class given is in vivo, mice.
Where [3] appears, read: ip, i.p., read-out: LD50 value, Intraperitoneal administration.
Where [4] appears, read: po, p.o., read-out: LD50 value, Oral administration.
[5] abbreviates: Mus musculus, 360 h, oral, twice a day for 14 days, survivors at 15th day, read-out: Survival rate.
Setting [6] is: Mus musculus, ip, 360 h, intraperitoneal, twice a day for 14 days, survivors at 15th day, read-out: Survival rate.

As to `CC(C)OC(=O)c1ccc(Br)c(S(N)(=O)=O)c1` [Compound 29], the “LD50 value, Intraperitoneal administration” value in data set [1] (i.p.) was >1,000 mg/kg. The “LD50 value, Oral administration” value in data set [1] (p.o.) is reported as >3,000 mg/kg. Moreover, in the data set on influenza virus B/GL, the responders at 100 mg/kg was 30% and the responders at 300 mg/kg was 40%.
As for `CCCOC(=O)c1cc(S(N)(=O)=O)c(Cl)cc1Cl` [Compound 33], the LD50 at 168 h in data set [1] (setting [3]) is above 1000 mg/kg; in [1] (setting [4]), above 3000 mg/kg. The responders at 30 mg/kg in the data set on influenza virus A/WSN (ip) came to 40%. The responders at 100 mg/kg was found to be 50% in the data set with influenza virus A/WSN (ip), 50% with influenza virus A/WSN (po) and 40% with influenza virus B/GL. For the same molecule, the responders at 300 mg/kg with influenza virus A/WSN (po) stood at 60%; in the data set with influenza virus B/GL it was 50%.
`CCCCCCCCOC(=O)c1cc(S(N)(=O)=O)c(Cl)cc1Cl` [Compound 37]: the LD50 at 168 h in data set [1] (setting [3]) is above 1000 mg/kg; in [1] (setting [4]) it was above 3000 mg/kg. Moreover, the responders at 10 mg/kg with influenza virus A/WSN was 50%. Further, the values for the responders at 30 mg/kg with influenza virus A/WSN (ip), in the data set with influenza virus A/WSN (po) and with influenza virus B/GL were 60%, 50% and 50%, respectively. In addition, the results for the responders at 100 mg/kg in the data set with influenza virus A/WSN (po) and in the data set on influenza virus B/GL were 70% and 80%, respectively. The Survival rate is reported as 50% in the data set with coxsackie virus B1 (300 mg/kg), 80% in the data set on coxsackie virus B1 (1000 mg/kg), 40% in [2] (30 mg/kg) and 70% in data set [2] (100 mg/kg). Besides, the “survival rates of the treated groups as compared with the control” value (“survival rates … compared with the control” below) in the data set on influenza virus B/GL was “extremely excellent activity”.
Take `COC(=O)c1cc(S(N)(=O)=O)c(Cl)cc1Cl` [Compound 31]: the LD50 at 168 h in [1] (setting [3]) is above 1000 mg/kg; in [1] (setting [4]) it was above 3000 mg/kg. In addition, the responders at 100 mg/kg with influenza virus A/WSN (po) and in the data set on influenza virus B/GL was 40% throughout. Further, the responders at 300 mg/kg in the data set with influenza virus A/WSN (po) and with influenza virus B/GL was 50% each time.
As for `CCCCOC(=O)c1ccc(Br)c(S(N)(=O)=O)c1` [Compound 30], the “LD50 value, Intraperitoneal administration” value in [1] (i.p.) is listed as >1,000 mg/kg. The “LD50 value, Oral administration” value in [1] (p.o.) was >3,000 mg/kg. Besides, the Survival rate with coxsackie virus B1 (300 mg/kg) was 40%; in the data set with coxsackie virus B1 (1000 mg/kg), 70%; in data set [2] (30 mg/kg), 40%; in [2] (100 mg/kg) it was 60%. For the same molecule, the “survival rates … compared with the control” value in the data set with influenza virus B/GL was “extremely excellent activity”. Further, in the data set with influenza virus B/GL, the responders at 30 mg/kg is 60%. Moreover, the responders at 300 mg/kg in the data set with influenza virus B/GL worked out at 70%.
In the case of `CCCCOC(=O)c1cc(S(N)(=O)=O)c(Cl)cc1Cl` [Compound 35], the LD50 at 168 h in data set [1] (setting [3]) was above 1000 mg/kg; in data set [1] (setting [4]), above 3000 mg/kg. Moreover, the responders at 30 mg/kg in the data set with influenza virus A/WSN (po) and in the data set on influenza virus B/GL was 40% each time. In addition, the responders at 100 mg/kg in the data set with influenza virus A/WSN (po) and in the data set with influenza virus B/GL was 60% in each case. In addition, the Survival rate is reported as 40% with coxsackie virus B1 (300 mg/kg), 80% in the data set with coxsackie virus B1 (1000 mg/kg), 30% in [2] (30 mg/kg) and 60% in data set [2] (100 mg/kg). Moreover, the “survival rates … compared with the control” value in the data set with influenza virus B/GL is “extremely excellent activity”.
`NS(=O)(=O)c1ccc(Cl)cc1C(=O)O` [Compound 27]: the LD50 at 168 h was above 1000 mg/kg in data set [1] (setting [3]) and above 3000 mg/kg in [1] (setting [4]). In addition, the MIC against Parainfluenza Type 3 was determined as 300 µg/mL (≈ 1270 µM); against Influenza A1 it was 300 µg/mL (≈ 1270 µM); in the data set with ECHO, 300 µg/mL (≈ 1270 µM); against Influenza B, 100 µg/mL (≈ 424 µM); in the data set with Coxsackie Type B5, 300 µg/mL (≈ 1270 µM); in the data set on Rhino it was 100 µg/mL (≈ 424 µM). In the data set with Influenza A0, this molecule showed an MIC of 30 µg/mL (≈ 127 µM). Moreover, in the data set on influenza A0 virus (setting [5]), the responders at 300 mg/kg came out at 40%. Further, the responders at 100 mg/kg with influenza A0 virus (setting [6]) was 40%.
As for `NS(=O)(=O)c1cc(Br)cc(C(=O)O)c1` [Compound 26], the values for the LD50 at 168 h in data set [1] (setting [3]) and in data set [1] (setting [4]) were above 1000 mg/kg and above 3000 mg/kg, respectively. Moreover, the MIC against Parainfluenza Type 3 amounted to 300 µg/mL (≈ 1070 µM); in the data set on Influenza A1 it was 300 µg/mL (≈ 1070 µM); against ECHO, 100 µg/mL (≈ 357 µM); against Influenza B it was 300 µg/mL (≈ 1070 µM); against Coxsackie Type B5, 300 µg/mL (≈ 1070 µM); against Rhino, 300 µg/mL (≈ 1070 µM). In the data set on Influenza A0, the MIC was 30 µg/mL (≈ 107 µM). In addition, the responders at 300 mg/kg in the data set on influenza A0 virus (setting [5]) was 50%. Also, the responders at 100 mg/kg in the data set on influenza A0 virus (setting [6]) worked out at 40%.
With `NNS(=O)(=O)c1cc(C(=O)O)ccc1Cl` [Compound 7], the LD50 at 168 h is 746 mg/kg in data set [1] (setting [3]) and above 3000 mg/kg in data set [1] (setting [4]). Moreover, the MIC against Parainfluenza Type 3 is 300 µg/mL (≈ 1200 µM); against Influenza A1, 300 µg/mL (≈ 1200 µM); in the data set on ECHO, 300 µg/mL (≈ 1200 µM); against Influenza B it was 100 µg/mL (≈ 399 µM); in the data set with Coxsackie Type B5, 300 µg/mL (≈ 1200 µM); against Rhino, 300 µg/mL (≈ 1200 µM). The same molecule came in with an MIC in the data set with Influenza A0 of 10 µg/mL (≈ 39.9 µM). In addition, in the data set with influenza A0 virus (setting [5]), the responders at 100 mg/kg worked out at 40%. The responders at 300 mg/kg in the data set with influenza A0 virus (setting [5]) was 60%. Moreover, the responders at 10 mg/kg with influenza A0 virus (Mus musculus, ip, 360 h, intraperitoneal, 10 mg/kg, twice a day for 14 days, survivors at 15th day, read-out: Survival rate) worked out at 30%. For the same molecule, the responders at 30 mg/kg in the data set with influenza A0 virus (Mus musculus, ip, 360 h, intraperitoneal, 30 mg/kg, twice a day for 14 days, survivors at 15th day, read-out: Survival rate) came out at 50%. Further, in the data set with influenza A0 virus (result in words, Tables 3 and 4), the “protective action against death due to the infection” value was “extremely excellent activity”.
For `O=C(O)c1ccc(Cl)c(S(=O)(=O)NNc2ccc(Cl)nn2)c1` [Compound 10], the results for the LD50 at 168 h in [1] (setting [3]) and in [1] (setting [4]) were above 1000 mg/kg and above 3000 mg/kg, respectively. Moreover, the MIC was found to be 300 µg/mL (≈ 826 µM) in the data set with Parainfluenza Type 3; 300 µg/mL (≈ 826 µM) in the data set with Influenza A1; 100 µg/mL (≈ 275 µM) in the data set on ECHO; 300 µg/mL (≈ 826 µM) against Influenza B; 300 µg/mL (≈ 826 µM) in the data set on Coxsackie Type B5; 300 µg/mL (≈ 826 µM) against Rhino. For the same molecule, in the data set on Influenza A0, the MIC was 30 µg/mL (≈ 82.6 µM). Also, in the data set with influenza A0 virus (setting [5]), the responders at 300 mg/kg was 40%. The responders at 100 mg/kg with influenza A0 virus (setting [6]) came out at 40%.
In the case of `COC(=O)c1cc(S(N)(=O)=O)c(Cl)cc1F` [Compound 41], the LD50 at 168 h in data set [1] (setting [3]) was above 1000 mg/kg. The LD50 at 168 h in data set [1] (setting [4]) is above 3000 mg/kg. Also, in the data set with influenza virus A/WSN (ip), the responders at 30 mg/kg was determined as 30% and the responders at 100 mg/kg was determined as 50%. Besides, in the data set on influenza virus B/GL, the responders at 100 mg/kg worked out at 30% and the responders at 300 mg/kg stood at 50%.
As to `CONS(=O)(=O)c1cc(C(=O)O)ccc1Cl` [Compound 4], the LD50 at 168 h in [1] (setting [3]) is above 1000 mg/kg; in [1] (setting [4]) it was above 3000 mg/kg. The MIC is 300 µg/mL (≈ 1130 µM) against Parainfluenza Type 3; 300 µg/mL (≈ 1130 µM) against Influenza A1; 300 µg/mL (≈ 1130 µM) in the data set with ECHO; 100 µg/mL (≈ 376 µM) against Influenza B; 300 µg/mL (≈ 1130 µM) against Coxsackie Type B5; 300 µg/mL (≈ 1130 µM) in the data set on Rhino. Further, the MIC in the data set on Influenza A0 is 30 µg/mL (≈ 113 µM). For the same molecule, the responders at 300 mg/kg with influenza A0 virus (setting [5]) came to 40%. In addition, the responders at 100 mg/kg in the data set on influenza A0 virus (setting [6]) stood at 50%.
